Data reported in US20260042755A1, “GPR6 INVERSE AGONISTS” (MapLight Therapeutics, Inc., priority 2022, published 2026).

Legend:
[1] = molecular target: T1, GPR6 (Homo sapiens, UniProt P46095); assay: GPR6 antagonist functional cAMP assay (LANCE Ultra cAMP TR-FRET, CHO cells stably expressing GPR6); assay type: cell-based
T1 construct: expressed in transfected cells; host or cells: CHO cells
Protocol: (§1) Example 56. GPR6 and GPR3 Antagonist Functional cAMP Assay
(§2) CHO cells stably expressing GPR6 or GPR3 receptors were dissociated from cell culture flasks and incubated for 2 h at 37° C. in a 10 cm dish in a humidified incubator. Cells were dissociated, counted to have 1e6 cells/mL (4.5e6 cells needed/384-well plate), washed once in starved media, than in D-PBS and finally suspended in assay buffer (Krebs-Ringer Bicarbonate Buffer with 1800 mg/L glucose, without calcium chloride and sodium bicarbonate (Sigma) in the presence of 0.1% BSA and 150 μM of Ro 20-1724 Phosphodiesterase inhibitor).
(§3) Cells in suspension from above were plated in 384-well white Optiplate (PerkinElmer) at 10,000 cells/well/10 μl, briefly centrifuged prior direct addition of compounds ([…]) in 10 mM DMSO using a Tecan D300e Digital Dispenser, final DMSO in each well was normalized to 0.1%. Cells were incubated in the presence of compounds for 45 min at 37° C. in a humidified incubator.
(§4) To measure cAMP levels, LANCE® Ultra cAMP assay (Perkin Elmer), a homogeneous time-resolved fluorescence resonance energy transfer (TR-FRET) immunoassay was used following manufacturer's recommendations. Plates were shaken for 1 h at room temperature before reading on a Tecan InfiniteF200Pro multi-mode plate reader using standard FRET settings (Excitation 340 nm, Emission at 615 nm). FRET values were reported as readings obtained at 665 nm. Data were normalized to DMSO (0.1%) and reference compounds (100%) and fit to a 4-parameter logistical fit to generate antagonist IC50s.

[2] = molecular target: T2, GPR3 (Homo sapiens, UniProt P46089); assay: GPR3 antagonist functional cAMP assay (LANCE Ultra cAMP TR-FRET, CHO cells stably expressing GPR3); assay type: cell-based
T2 construct: expressed in transfected cells; host or cells: CHO cells
T2 sequence (P46089 whole entry, species assumed): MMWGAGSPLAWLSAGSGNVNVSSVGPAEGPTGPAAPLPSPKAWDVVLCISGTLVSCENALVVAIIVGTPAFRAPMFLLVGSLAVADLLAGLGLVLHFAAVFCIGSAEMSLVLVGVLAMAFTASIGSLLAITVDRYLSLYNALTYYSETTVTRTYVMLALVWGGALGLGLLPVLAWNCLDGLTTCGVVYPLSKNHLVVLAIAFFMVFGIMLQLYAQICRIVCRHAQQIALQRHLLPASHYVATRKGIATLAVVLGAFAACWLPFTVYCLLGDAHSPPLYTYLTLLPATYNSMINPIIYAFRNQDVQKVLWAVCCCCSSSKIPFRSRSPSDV
Protocol: as §1, §2, §3, §4

[3] = CHO cells stably expressing GPR6, cAMP assay (Example 24)
[4] = CHO cells stably expressing GPR3, cAMP assay (Example 24)
[5] = procedure as described in Example 24
[6] = CHO cells stably expressing GPR6, cAMP assay
[7] = CHO cells stably expressing GPR3, cAMP assay

T1 sequence (P46095 whole entry): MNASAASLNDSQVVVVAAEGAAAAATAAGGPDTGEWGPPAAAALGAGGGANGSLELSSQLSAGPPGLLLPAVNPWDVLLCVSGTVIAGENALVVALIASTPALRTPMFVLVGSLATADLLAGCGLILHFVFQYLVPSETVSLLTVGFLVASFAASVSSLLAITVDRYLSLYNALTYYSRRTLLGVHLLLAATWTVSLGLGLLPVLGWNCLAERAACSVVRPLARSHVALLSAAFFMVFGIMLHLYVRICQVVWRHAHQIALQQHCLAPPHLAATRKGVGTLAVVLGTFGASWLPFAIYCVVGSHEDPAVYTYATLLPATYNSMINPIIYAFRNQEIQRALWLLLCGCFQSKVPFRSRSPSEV

Row | SMILES | IC50 [1, 3] [µM] | IC50 [2, 4] [µM] | IC50 ([1]; procedure of Example 24) [µM] | IC50 ([2]; procedure of Example 24) [µM] | also measured
1 | CS(=O)(=O)N1CCc2nc(N3CCC(Oc4ccc(F)cc4F)CC3)c(-c3cn[nH]c3)nc2C1 [Compound 70, 2-(4-(2,4-difluorophenoxy)piperidin-1-yl)-6-(methylsulfonyl)-3-(1H-pyrazol-4-yl)-5,6,7,8-tetrahydropyrido[3,4-b]pyrazine] | 0.1 to 1 | 1 to 30 | – | – | –
2 | COCn1ccnc1-c1nc2ccncc2nc1N1CCN(Cc2ccc(F)cc2Cl)CC1 [Compound 28, 1-[(2-chloro-4-fluorophenyl)methyl]-4-{2-[1-(methoxymethyl)-1H-imidazol-2-yl]pyrido[3,4-b]pyrazin-3-yl}piperazine] | – | – | – | – | IC50 [1, 5]: ≥ 30 µM; IC50 [2, 5]: 0.1 to 1 µM
3 | Cn1cc(-c2nc3cnccc3nc2N2CCN(CC3CCOCC3)CC2)cn1 [Compound 242, 1-[3-(1-methyl-1H-pyrazol-4-yl)pyrido[3,4-b]pyrazin-2-yl]-4-[(oxan-4-yl)methyl]piperazine] | ≥ 30 | 1 to 30 | – | – | –
4 | CC(=O)N1CCc2nc(N3CCC(Oc4ccc(F)cc4F)CC3)c(-c3ccc(F)c(=O)[nH]3)nc2C1 [Compound 105, 6-{6-acetyl-2-[4-(2,4-difluorophenoxy)piperidin-1-yl]-5H,6H,7H,8H-pyrido[3,4-b]pyrazin-3-yl}-3-fluoro-1,2-dihydropyridin-2-one] | 1 to 30 | 1 to 30 | – | – | –
5 | CC(=O)N1CCc2nc(N3CCN(Cc4ccc(F)cc4F)C[C@@H]3C)c(-c3cnn(C)c3)nc2C1 (single isomer, unassigned) [Compound 232] | 1 to 30 | 1 to 30 | – | – | –
6 | CC(=O)N1CCc2nc(N3CCN(Cc4cccc(=O)n4C)CC3)c(-c3cnn(C)c3)nc2C1 [Compound 533, 6-({4-[6-acetyl-3-(1-methyl-4-pyrazolyl)-5,6,7,8-tetrahydro-1,4,6-triaza-2-naphthyl]-1-piperazinyl}methyl)-1-methyl-2(1H)-pyridinone] | – | – | – | – | IC50 [1, 6]: ≥ 30 µM; IC50 [2, 7]: ≥ 30 µM
7 | CCn1cc(-c2nc3c(nc2N2CCC(Oc4ccc(F)cc4F)CC2)CCN(S(=O)(=O)C(C)C)C3)cn1 [Compound 266, 4-(2,4-difluorophenoxy)-1-[3-(1-ethyl-1H-pyrazol-4-yl)-6-(propane-2-sulfonyl)-5H,6H,7H,8H-pyrido[3,4-b]pyrazin-2-yl]piperidine] | – | – | < 0.1 | 1 to 30 | –
8 | COc1ccc(-c2nc3c(nc2N2CCC(Oc4ccc(F)cc4F)CC2)CCN(C(C)=O)C3)nc1 [Compound 10] | – | – | – | – | IC50 [1, 5]: 0.1 to 1 µM; IC50 [2, 5]: 1 to 30 µM
9 | Cn1cc(-c2nc3cnc(N)cc3nc2N2CCC(Oc3ccc(F)cc3F)CC2)cn1 [Compound 277, 2-[4-(2,4-difluorophenoxy)piperidin-1-yl]-3-(1-methyl-1H-pyrazol-4-yl)pyrido[3,4-b]pyrazin-7-amine] | – | – | 0.1 to 1 | 1 to 30 | –
10 | CC(=O)N1CCc2nc(N3CCC(Oc4ccc(F)cc4F)CC3)c(C3=CCOCC3)nc2C1 [Compound 198, 1-{2-[4-(2,4-difluorophenoxy)piperidin-1-yl]-3-(3,6-dihydro-2H-pyran-4-yl)-5H,6H,7H,8H-pyrido[3,4-b]pyrazin-6-yl}ethan-1-one] | 0.1 to 1 | 1 to 30 | – | – | –
11 | CC(=O)N1CCc2nc(N3CCN(Cc4ccoc4)CC3)c(-c3cnn(C)c3)nc2C1 [Compound 529, 1-(2-{4-[(3-furyl)methyl]-1-piperazinyl}-3-(1-methyl-4-pyrazolyl)-5,6,7,8-tetrahydro-1,4,6-triaza-6-naphthyl)-1-ethanone] | – | – | – | – | IC50 [1, 6]: 1 to 30 µM; IC50 [2, 7]: ≥ 30 µM
12 | COC[C@H]1CN(Cc2ccc(F)cc2F)CCN1c1nc2ccncc2nc1-c1cnn(C)c1 (single isomer, unassigned) [Compound 238] | 1 to 30 | 1 to 30 | – | – | –
13 | CC(C)n1cc(-c2nc3cnc(C(O)C(C)(C)O)cc3nc2N2CCN(Cc3ccc(F)cc3F)CC2)cn1 (centres unmarked) [Compound 298, 1-(2-{4-[(2,4-difluorophenyl)methyl]piperazin-1-yl}-3-[1-(propan-2-yl)-1H-pyrazol-4-yl]pyrido[3,4-b]pyrazin-7-yl)-2-methylpropane-1,2-diol] | – | – | 0.1 to 1 | 1 to 30 | –
14 | CC(=O)N1CCc2nc(N3CCC(Oc4ccc(F)cc4F)CC3)c(-c3cnn(C(C)C)c3)nc2C1 [Compound 165, 1-{2-[4-(2,4-difluorophenoxy)piperidin-1-yl]-3-[1-(propan-2-yl)-1H-pyrazol-4-yl]-5H,6H,7H,8H-pyrido[3,4-b]pyrazin-6-yl}ethan-1-one] | < 0.1 | 1 to 30 | – | – | –

More lines, main results first:

Row | IC50 [1, 3] [µM] | IC50 [2, 4] [µM] | IC50 ([1]; procedure of Example 24) [µM] | IC50 ([2]; procedure of Example 24) [µM] | SMILES | also measured
15 | – | – | 0.1 to 1 | 1 to 30 | CC(C)(O)C(=O)c1cc2nc(N3CCN(Cc4ccccc4F)CC3)c(-c3cnn(C(F)F)c3)nc2cn1 [Compound 618, 1-{3-[1-(difluoromethyl)-4-pyrazolyl]-2-{4-[(o-fluorophenyl)methyl]-1-piperazinyl}-1,4,6-triaza-7-naphthyl}-2-hydroxy-2-methyl-1-propanone] | –
16 | – | – | 0.1 to 1 | 1 to 30 | Cn1cc(-c2nc3cnc(C(N)=O)cc3nc2N2CCC(Oc3ccc(F)cc3F)CC2)cn1 [Compound 330, 2-[4-(2,4-difluorophenoxy)piperidin-1-yl]-3-(1-methyl-1H-pyrazol-4-yl)pyrido[3,4-b]pyrazine-7-carboxamide] | –
17 | 0.1 to 1 | 1 to 30 | – | – | COCCNc1cc2nc(N3CCC(Oc4ccc(F)cc4F)CC3)c(-c3cnn(C)c3)nc2cn1 [Compound 380, 2-[4-(2,4-difluorophenoxy)piperidin-1-yl]-N-(2-methoxyethyl)-3-(1-methyl-1H-pyrazol-4-yl)pyrido[3,4-b]pyrazin-7-amine] | –
18 | – | – | ≥ 30 | 0.1 to 1 | CC(=O)OC1CCN(c2nc3c(nc2-c2cnn(C)c2)CN(C(C)=O)CC3)C1 (centres unmarked) [Compound 315, 1-[6-acetyl-3-(1-methyl-1H-pyrazol-4-yl)-5H,6H,7H,8H-pyrido[3,4-b]pyrazin-2-yl]pyrrolidin-3-yl acetate] | –
19 | – | – | < 0.1 | 0.1 to 1 | CC(=O)N1CCc2nc(N3CCC(Cc4cc(F)ccc4F)CC3)c(-c3ccc(F)c(N)n3)nc2C1 [Compound 702, 1-[3-(6-amino-5-fluoro-2-pyridyl)-2-{4-[(2,5-difluorophenyl)methyl]-1-piperidyl}-5,6,7,8-tetrahydro-1,4,6-triaza-6-naphthyl]-1-ethanone] | –
20 | 1 to 30 | 1 to 30 | – | – | CC(=O)N1CCc2nc(N3CCC(Oc4ccccc4)CC3)c(-c3cnn(C)c3)nc2C1 [Compound 419, 1-[3-(1-methyl-1H-pyrazol-4-yl)-2-(4-phenoxypiperidin-1-yl)-5H,6H,7H,8H-pyrido[3,4-b]pyrazin-6-yl]ethan-1-one] | –
21 | 1 to 30 | 1 to 30 | – | – | CC(=O)N1CCc2nc(N3CCC(Oc4cc(F)cc(F)c4)CC3)c(-c3cnn(C)c3)nc2C1 [Compound 431, 1-{2-[4-(3,5-difluorophenoxy)piperidin-1-yl]-3-(1-methyl-1H-pyrazol-4-yl)-5H,6H,7H,8H-pyrido[3,4-b]pyrazin-6-yl}ethan-1-one] | –
22 | – | – | 0.1 to 1 | 1 to 30 | CC(C)(O)C(=O)c1cc2nc(N3CCC(Oc4ccc(F)cc4F)CC3)c(-c3cnn(C4CC4)c3)nc2cn1 [Compound 625, 1-{3-(1-cyclopropyl-4-pyrazolyl)-2-[4-(2,4-difluorophenoxy)-1-piperidyl]-1,4,6-triaza-7-naphthyl}-2-hydroxy-2-methyl-1-propanone] | –
